According to PMC10975178, “Evaluation on the Potential for Hepatotoxic Components from Herba Epimedii to Induce Apoptosis in HepG2 Cells and the Analysis of the Influence of Metabolism in Liver Microsomes” (Molecules, 2024):

Legend:
caspase-9 = assay: Western blot, caspase-9 expression in HepG2 cells; type: cell-based; settings: 24 h, high concentration (sagittatoside A 49, icariside I 50, baohuoside I 32, icaritin 3.8 μg/mL), vs untreated cells
Protocol: (§1) To explore the mechanism of apoptosis induced by the hepatotoxic compounds, the expression of key proteins related to apoptosis, including Bax, Bcl-2, Caspase-3 and Caspase-9, was assessed by western blotting. HepG2 cells were treated with different concentrations of the hepatotoxic compounds for 24 h and collected with a cell scraper. The concentrations of sagittatoside A were set to 12.2, 24.5, and 49 μg/mL; those of icariside I were 12.5, 25, and 50 μg/mL; baohuoside I was used at 8, 16, and 32 μg/mL; and icaritin was tested at 0.9, 1.9 and 3.8 μg/mL. The cells were washed twice with PBS and lysed in total protein cell lysis buffer. Protein concentrations were determined using a BCA protein assay kit (Thermo Fisher Scientific, Waltham, MA, USA). Then, to destroy the 3-dimensional protein structure, the proteins in the loading buffer were heated at 95 °C for 5 min. An equal amount of protein from each sample was separated by SDS-PAGE on 10% SDS–polyacrylamide gels. After the protein was transferred to a polyvinylidene difluoride membrane (Millipore, Bedford, MA, USA), the membrane was incubated in blocking buffer (5% nonfat dairy milk in TBST) for 2 h and probed with various antibodies (1:1000) overnight at 4 °C. The membrane was then probed with a secondary antibody (1:5000) for 2 h at room temperature, and detection was performed with an enhanced chemiluminescence kit (Millipore, Bedford, MA, USA). β-Actin was used as the control to confirm equal loading. Densitometry index analysis of the bands was conducted using a gel imagery system. The changes in the protein expression levels are expressed as percentages relative to the levels measured in the corresponding control groups.

caspase-3 = assay: Western blot, caspase-3 expression in HepG2 cells; type: cell-based; settings: 24 h, high concentration (sagittatoside A 49, icariside I 50, baohuoside I 32, icaritin 3.8 μg/mL), vs untreated cells
Protocol: as §1, with “The membrane was then probed with a secondary antibody (1:5000) for 2 h at room temperature, and detection was performed with an enhanced chemiluminescence kit (Millipore, Bedford, MA, USA). β-Actin was used as the control to confirm equal loading. Densitometry index analysis of the bands was conducted using a gel imagery system.” left out

Bax/Bcl-2 = assay: Western blot, Bax/Bcl-2 ratio in HepG2 cells; type: cell-based; settings: 24 h, high concentration (sagittatoside A 49, icariside I 50, baohuoside I 32, icaritin 3.8 μg/mL), vs untreated cells
Protocol: as §1, with “The membrane was then probed with a secondary antibody (1:5000) for 2 h at room temperature, and detection was performed with an enhanced chemiluminescence kit (Millipore, Bedford, MA, USA). β-Actin was used as the control to confirm equal loading. Densitometry index analysis of the bands was conducted using a gel imagery system.” left out

[1] = type: in vitro ADME, humans; settings: human, microsomes, 5 μM; for amount remaining: 1 h; for final amount remaining: 60 min
Protocol: The incubation mixtures were prepared following the instructions from the manufacturer of the metabolic stability kits and contained sagittatoside A, icariside I, baohuoside I, and icaritin, of which the final concentrations were 49, 50, 32 and 3.8 μg/mL. The final concentration of organic solvents in the incubation mixture was 1% (v/v). After preincubation for 5 min at 37 °C, metabolic reactions of phase I and II were both initiated by the addition of human liver microsomes (final concentration, 0.20 mg protein/mL). Phase I metabolism is mediated by the enzyme cytochrome P450 (CYP), and phase II metabolism is mediated by UDP-glucuronosyltransferase (UGT). The whole reaction process was performed under aerobic conditions. After 30 min, an equal volume of cold acetonitrile was added and vortexed for 1 min to terminate the reactions. Subsequently, 200 μL of the resulting solution was centrifuged at 3000 rpm and 4 °C for 10 min. Then, 100 μL of supernatant was dried at 40 °C with nitrogen gas, and the residue was redissolved in 100 μL with fresh medium to prepare for treating cells. Negative controls (incubation without substrate) were prepared in the same manner.
The incubation mixtures were also prepared following Section 2.4 and contained sagittatoside A, icariside I, baohuoside I, and icaritin, of which the final concentrations were 5.00 μM. After the mixtures were incubated separately in phase I or phase II metabolism systems for 5, 10, 15, 20, 30, 45 and 60 min, the reactions were terminated by adding an equal volume of cold acetonitrile (with 7 μM IS) and vortex mixing for 1 min. Subsequently, 200 μL of the resulting solution was centrifuged at 3000 rpm and 4 °C for 10 min. Then, 100 μL of supernatant was dried at 40 °C with nitrogen gas, and the residue was redissolved in 100 μL of 50% methanol to prepare the samples for HPLC–MS/MS detection. Time zero samples (prepared by first adding cold acetonitrile and then adding NADPH for phase I metabolism or NADPH and UDPGA for phase II metabolism) and negative controls (incubation without substrate) were prepared separately in the same manner.
HPLC analysis was performed on an AB Sciex ExionLC HPLC system (Santa Clara, CA, USA) equipped with an autosampler, a vacuum degasser unit, a quaternary pump, a diode array detector (DAD) and a column compartment. Samples were separated on an ACQUITY ΜPLC BEH C18 column (2.1 × 100 mm, 1.7 μm) connected to an ACQUITY ΜPLC BEH C18 precolumn (2.1 × 5 mm, 1.7 μm) at 40 °C. The mobile phases were water with 0.05% formic acid (A) and methanol-acetonitrile (v/v 1:1) with 0.05% formic acid (B), and the elution gradient was as follows: 70% A (0.00–1.00 min), 2% A (2.50–3.50 min), and 70% A (3.51–7.00 min). The flow rate was set at 0.23 mL/min, and the injection volume was 5 μL.
Electrospray ionization–mass spectrometry (ESI–MS) analyses were performed on an AB Sciex QTRAP 5500 (EG250911902) mass spectrometer (Santa Clara, CA, USA). Detection was performed with multiple reaction monitoring (MRM) in ESI negative ion mode. The spray voltage was set to −4500 V, the curtain gas was 25 psi, the collision gas was set to medium, both auxiliary gases 1 and 2 were used at 45 psi, and the heating temperature was 550 °C.
In accordance with the above HPLC–MS/MS analysis method, the content of each compound in the sample at each time point was measured. Then, using the substrate depletion method, the content of each compound in the time zero sample was set as 100%, and the percent residual substrate was calculated. The relationship between the natural logarithmic value of the percent residual substrate and time point was explored by linear regression using GraphPad Prism 5.0 software, and the slope (−k) was obtained. […]

Row | amount remaining [1] [%] | final amount remaining [1] [%] | SMILES | caspase-9 expression (caspase-9) | caspase-3 expression (caspase-3) | Bax/Bcl-2 ratio (Bax/Bcl-2)
1 | 36.23 ± 1.12 | 20.51 ± 0.97 | COc1ccc(-c2oc3c(CC=C(C)C)c(O)cc(O)c3c(=O)c2O)cc1 [icaritin] | significant increase | significant increase | increased
2 | 10.08 ± 0.43 | 45.62 ± 1.52 | COc1ccc(-c2oc3c(CC=C(C)C)c(O[C@@H]4O[C@H](CO)[C@@H](O)[C@H](O)[C@H]4O)cc(O)c3c(=O)c2O)cc1 [icariside I] | significant increase | – | –
3 | 20.74 ± 0.39 | 5.56 ± 0.60 | COc1ccc(-c2oc3c(CC=C(C)C)c(O)cc(O)c3c(=O)c2O[C@@H]2O[C@@H](C)[C@H](O)[C@@H](O)[C@H]2O)cc1 [baohuoside I] | significant increase | significant increase | increased
